Patent publication US20210024507A1, “Compounds” (Step Pharma S.A.S., priority 2018, published 2021)

Test system: human CTPS1
Test: RapidFire/MS-based enzyme selectivity assay, human CTPS1
Assay type: biochemical
Conditions: calculated from the CTPS1 and CTPS2 IC50 values
Procedure: The enzyme inhibitory activities against each target isoform of interest may be determined for the compounds of the invention using an optimised RapidFire high-throughput mass spectrometry (RF/MS) assay format. RF/MS assays for both human CTPS1 and CTPS2 may be performed in assay buffer consisting of 50mM HEPES (Merck), 20mM MgCl2, 5mM KCI, 1mM DTT, 0.01% Tween-20, pH to 8.0 accordingly. Human full-length active C-terminal FLAG-His-tag CTPS1 (UniProtKB - P17812, CTPS[1-591]-[…]) may be obtained from Proteros biostructures GmbH. Human full length active C-terminal FLAG-His-Avi tagged CTPS2 (UniProtKB-Q9NRF8, CTPS2 [1-586]- […]) may be obtained from Harker Bio.
Human CTPS (1 or 2) protein may be prepared in lx assay buffer to the final working protein concentration required for the reaction. A 2uL volume per well of 2× CTPS (1 or 2) protein may be mixed with 40nL of compound using acoustic (ECHO) delivery and incubated for 10 minutes at 25° C. Each isoform enzymatic reaction may be subsequently initiated by addition of 2uL per well of a 2× substrate mix in assay buffer. For hCTPS1: ATP (0.3mM), UTP (0.2mM), GTP (0.07mM) and L-glutamine (0.1mM). For hCTPS2: ATP (0.1mM), UTP (0.04mM), GTP (0.03mM) and L-glutamine (0.1mM). Each mixture may be incubated for an appropriate amount of time per isoform within the determined linear phase of the reaction at 25° C. A 60uL volume of stop solution (1% formic acid with 0.5uM ^13C9-^15N3-CTP in H2O) may be added and the plate immediately heat-sealed and centrifuged for 10 minutes at 4,000rpm. Following centrifugation, plates may be loaded onto the Agilent RapidFire microfluidic solid phase extraction system coupled to an AP14000 triple quadrupole mass spectrometer (RF/MS) for analysis.
In all cases, the enzyme converts UTP to CTP. Highly specific and sensitive multiple reaction monitoring (MRM) MS methods may be optimised for the detection of the enzymatic reaction product, CTP, and the stable isotope labelled product standard ^13C9-^15N3-CTP. Readout for data analysis may be calculated as the ratio between the peak area of the product CTP and the internal standard ^13C9-^15N3-CTP. For data reporting, the following equation may be used:
[formula] (R=ratio/readout, P=product signal area, IS=internal standard signal area)
For each screening plate, the means of the negative (DMSO) and positive control values were used for the calculation of the respective assay window (S/B) and Z′ values. The median of the respective control values was used for calculation of percent inhibition according to the following equation:
[formula] (I=Inhibition, Rneg=median of negative control readout values, Rpos=median of positive control readout values, Rsample=sample readout value)
Percentage inhibition was then plotted against compound concentration, and the 50% inhibitory concentration (IC50) was determined from the resultant concentration-response curve.
Fold selectivity between CTPS1 and CTPS2 was subsequently calculated according to the following equation: […]

Row | Compound | Selectivity (fold selectivity between CTPS1 and CTPS2)
1 | CC(C)Oc1cncc(-c2ccc(NC(=O)Cc3ccnc(NS(=O)(=O)C4CC4)n3)cc2)n1 [P21, 2-(2-(cyclopropanesulfonamido)pyrimidin-4-yl)-N-(4-(6-isopropoxypyrazin-2-yl)phenyl)acetamide] | ++ (>30-60 fold (++))
2 | CCOc1cncc(-c2ccc(NC(=O)C(C)(C)c3ccnc(NS(=O)(=O)C4CC4)n3)nc2)n1 [P31, 2-(2-(cyclopropanesulfonamido)pyrimidin-4-yl)-N-(5-(6-ethoxypyrazin-2-yl)pyridin-2-yl)-2-methylpropanamide] | +++ (>60 fold (+++))
3 | CCOc1cncc(-c2ccc(NC(=O)C(C)(C)c3ccnc(NS(=O)(=O)C4CC4)n3)c(C#N)c2)n1 [P34, N-(2-cyano-4-(6-ethoxypyrazin-2-yl)phenyl)-2-(2-(cyclopropanesulfonamido)pyrimidin-4-yl)-2-methylpropanamide] | + (2-30 fold (+))
4 | CCOc1cncc(-c2ccc(NC(=O)C(C)(C)c3ccnc(NS(=O)(=O)C4CC4)n3)c(F)c2)n1 [P38, 2-(2-(cyclopropanesulfonamido)pyrimidin-4-yl)-N-(4-(6-ethoxypyrazin-2-yl)-2-fluorophenyl)-2-methylpropanamide] | + (2-30 fold (+))
5 | CC(C)Oc1cncc(-c2ccc(NC(=O)C(C)(C)c3ccnc(NS(=O)(=O)C4CC4)n3)c(F)c2)n1 [P39, 2-(2-(cyclopropanesulfonamido)pyrimidin-4-yl)-N-(2-fluoro-4-(6-isopropoxypyrazin-2-yl)phenyl)-2-methylpropanamide] | + (2-30 fold (+))
6 | CC(C)(C(=O)Nc1ccc(-c2cccnc2)cc1)c1ccnc(NS(=O)(=O)C2CC2)n1 [P59, 2-(2-(cyclopropanesulfonamido)pyrimidin-4-yl)-2-methyl-N-(4-(pyridin-3-yl)phenyl)propanamide] | + (2-30 fold (+))
7 | CCOc1cncc(-c2ccc(NC(=O)C(C)(C)c3ccnc(NS(=O)(=O)C4CC4)n3)cc2)n1 [P65, 2-(2-(cyclopropanesulfonamido)pyrimidin-4-yl)-N-(4-(6-ethoxypyrazin-2-yl)phenyl)-2-methylpropanamide] | ++ (>30-60 fold (++))
8 | CCOc1cncc(-c2ccc(NC(=O)C(C)(C)c3nc(NS(=O)(=O)C4CC4)ncc3F)cc2)n1 [P68, 2-(2-(cyclopropanesulfonamido)-5-fluoropyrimidin-4-yl)-N-(4-(6-ethoxypyrazin-2-yl)phenyl)-2-methylpropanamide] | ++ (>30-60 fold (++))
9 | CCOc1cncc(-c2ccc(NC(=O)C(C)(C)c3nc(NS(=O)(=O)C4CC4)ncc3C)cc2)n1 [P70, 2-(2-(cyclopropanesulfonamido)-5-methylpyrimidin-4-yl)-N-(4-(6-ethoxypyrazin-2-yl)phenyl)-2-methylpropanamide] | + (2-30 fold (+))
10 | CCOc1cncc(-c2ccc(NC(=O)C(C)(C)c3ccnc(NS(=O)(=O)CC)n3)cc2)n1 [P74, N-(4-(6-ethoxypyrazin-2-yl)phenyl)-2-(2-(ethylsulfonamido)pyrimidin-4-yl)-2-methylpropanamide] | ++ (>30-60 fold (++))
11 | CCOc1cncc(-c2ccc(NC(=O)C(C)(C)c3ccnc(NS(C)(=O)=O)n3)nc2)n1 [P76, N-(5-(6-ethoxypyrazin-2-yl)pyridin-2-yl)-2-methyl-2-(2-(methylsulfonamido)pyrimidin-4-yl)propanamide] | ++ (>30-60 fold (++))
12 | CCOc1cncc(-c2ccc(NC(=O)C3(c4ccnc(NS(=O)(=O)C5CC5)n4)CC3)cc2)n1 [P83, 1-(2-(cyclopropanesulfonamido)pyrimidin-4-yl)-N-(4-(6-ethoxypyrazin-2-yl)phenyl)cyclopropanecarboxamide] | +++ (>60 fold (+++))
13 | CCOc1cncc(-c2ccc(NC(=O)C3(c4ccnc(NS(=O)(=O)C5CC5)n4)CCOCC3)nc2)n1 [P115, 4-(2-(cyclopropanesulfonamido)pyrimidin-4-yl)-N-(5-(6-ethoxypyrazin-2-yl)pyridin-2-yl)tetrahydro-2H-pyran-4-carboxamide] | +++ (>60 fold (+++))
14 | CCOc1cncc(-c2ccc(C(=O)NCc3ccnc(NS(=O)(=O)C4CC4)n3)cc2)n1 [P118, N-((2-(cyclopropanesulfonamido)pyrimidin-4-yl)methyl)-4-(6-ethoxypyrazin-2-yl)benzamide] | +++ (>60 fold (+++))
15 | CC(C)(C(=O)Nc1ccc(-c2cncc(C3CC3)n2)cn1)c1ccnc(NS(=O)(=O)C2CC2)n1 [P125, 2-(2-(cyclopropanesulfonamido)pyrimidin-4-yl)-N-(5-(6-cyclopropylpyrazin-2-yl)pyridin-2-yl)-2-methylpropanamide] | ++ (>30-60 fold (++))
16 | CCOc1cncc(-c2ccc(NC(=O)C3(c4ccnc(NS(=O)(=O)C5CC5)n4)CCCC3)nc2)n1 [P136, 1-(2-(cyclopropanesulfonamido)pyrimidin-4-yl)-N-(5-(6-ethoxypyrazin-2-yl)pyridin-2-yl)cyclopentane-1-carboxamide] | +++ (>60 fold (+++))
17 | CCOc1cncc(-c2ccc(NC(=O)C3(c4ccnc(NS(=O)(=O)C5CC5)n4)CCOCC3)c(F)c2)n1 [P143, 4-(2-(cyclopropanesulfonamido)pyrimidin-4-yl)-N-(4-(6-ethoxypyrazin-2-yl)-2-fluorophenyl)tetrahydro-2H-pyran-4-carboxamide] | +++ (>60 fold (+++))
18 | CCOc1cncc(-c2ccc(NC(=O)C(CCOC)c3ccnc(NS(=O)(=O)C4CC4)n3)nc2)n1 (stereo not shown) [P145, 2-(2-(cyclopropanesulfonamido)pyrimidin-4-yl)-N-(5-(6-ethoxypyrazin-2-yl)pyridin-2-yl)-4-methoxybutanamide] | +++ (>60 fold (+++))
19 | CCOc1cncc(-c2ccc(NC(=O)C(CCOC)c3ccnc(NS(=O)(=O)C4CC4)n3)c(F)c2)n1 (stereo not shown) [P146, 2-(2-(cyclopropanesulfonamido)pyrimidin-4-yl)-N-(4-(6-ethoxypyrazin-2-yl)-2-fluorophenyl)-4-methoxybutanamide] | +++ (>60 fold (+++))
20 | CCOc1cncc(-c2ccc(NC(=O)C(F)(CC)c3ccnc(NS(C)(=O)=O)n3)nc2)n1 (stereo not shown) [P151, N-(5-(6-ethoxypyrazin-2-yl)pyridin-2-yl)-2-fluoro-2-(2-(methylsulfonamido)pyrimidin-4-yl)butanamide] | +++ (>60 fold (+++))
21 | CCOc1cncc(-c2ccc(NC(=O)C(OC)c3ccnc(NS(=O)(=O)C4CC4)n3)cc2)n1 (stereo not shown) [P164, 2-(2-(cyclopropanesulfonamido)pyrimidin-4-yl)-N-(4-(6-ethoxypyrazin-2-yl)phenyl)-2-methoxyacetamide] | + (2-30 fold (+))
22 | CCOc1cncc(-c2ccc(NC(=O)C(C)(C)c3cncc(NS(=O)(=O)C4CC4)n3)nc2)n1 [P195, 2-(6-(cyclopropanesulfonamido)pyrazin-2-yl)-N-(5-(6-ethoxypyrazin-2-yl)pyridin-2-yl)-2-methylpropanamide] | +++ (>60 fold (+++))
23 | CCOc1cncc(-c2ccc(NC(=O)C(C)(C)c3cncc(NS(=O)(=O)C4CC4)n3)cc2)n1 [P196, 2-(6-(cyclopropanesulfonamido)pyrazin-2-yl)-N-(4-(6-ethoxypyrazin-2-yl)phenyl)-2-methylpropanamide] | +++ (>60 fold (+++))
24 | CCOc1cncc(-c2ccc(NC(=O)C3(c4cncc(NS(=O)(=O)C5CC5)n4)CCOCC3)nc2)n1 [P197, 4-(6-(cyclopropanesulfonamido)pyrazin-2-yl)-N-(5-(6-ethoxypyrazin-2-yl)pyridin-2-yl)tetrahydro-2H-pyran-4-carboxamide] | +++ (>60 fold (+++))
25 | CC(C)Oc1cncc(-c2ccc(C(=O)NC(C)(C)c3cncc(NS(=O)(=O)C4CC4)n3)c(F)c2)n1 [P221, N-(2-(6-(cyclopropanesulfonamido)pyrazin-2-yl)propan-2-yl)-2-fluoro-4-(6-isopropoxypyrazin-2-yl)benzamide] | + (2-30 fold (+))
